Results: PubChem BioAssay (NCI)
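1) Cells in 96-well plates. 2) Compound, 48 h, 5 concentrations. 3) Linear interpolation between surrounding doses. 4) Unreached endpoint = highest concentration. GI50 marks 50% less growth. TGI marks complete inhibition of growth.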

Experiments:
Test in all cases: growth of human tumour cells (NCI), 48 h
[1] = system: SNB-75 CNS
[2] = system: NCI/ADR-RES ovarian
[3] = system: SF-539 CNS
[4] = system: CCRF-CEM leukemia
[5] = system: HCT-15 colon
[6] = system: HT29 colon
[7] = system: A549 NSCLC
[8] = system: HS 578T breast
[9] = system: TK-10 renal
[10] = system: COLO 205 colon

SMILES: CCCCCCNc1nc(NCCCCCC)c2[nH]c(NCCCCCC)nc2n1
- GI50 [1]: 4.31 µM
- TGI [1]: 20.7 µM
- GI50 [2]: 64.5 µM
- TGI [2]: > 100 µM
- GI50 [3]: 7.39 µM
- TGI [3]: 21.1 µM
- GI50 [4]: 4.95 µM
- TGI [4]: 35.6 µM
- GI50 [5]: 10.7 µM
- TGI [5]: > 51.7 µM
- GI50 [6]: 5.59 µM
- TGI [6]: 18.8 µM
- GI50 [7]: 1.58 µM
- TGI [7]: 14.8 µM
- GI50 [8]: 1.97 µM
- TGI [8]: 9.84 µM
- GI50 [9]: 21.3 µM
- TGI [9]: 46.6 µM
- GI50 [10]: 1.32 µM
- TGI [10]: 2.76 µM

SMILES: CCCCCC(=O)Oc1ccc(/C(=C(\C)c2ccc(OC)cc2)c2ccc(OCCN3CCCCC3)cc2)cc1
- GI50 [1]: 10.2 µM
- TGI [1]: 26.3 µM
- GI50 [2]: 11 µM
- TGI [2]: 26.1 µM
- GI50 [3]: 3.56 µM
- TGI [3]: 14 µM
- GI50 [4]: 4.2 µM
- TGI [4]: 31.8 µM
- GI50 [5]: 2.92 µM
- TGI [5]: 10.2 µM
- GI50 [6]: 3.36 µM
- TGI [6]: 13.4 µM
- GI50 [7]: 10.1 µM
- TGI [7]: 22.4 µM
- GI50 [8]: 4.76 µM
- TGI [8]: 25.1 µM
- GI50 [9]: 17.5 µM
- TGI [9]: 31.8 µM
- GI50 [10]: 2.02 µM
- TGI [10]: 4.55 µM

SMILES: NCCN1CCN(c2nccc(-c3ccc4ccccc4c3)n2)CC1
- GI50 [1]: 1.41 µM
- TGI [1]: 2.9 µM
- GI50 [2]: 2.48 µM
- TGI [2]: 6.71 µM
- GI50 [3]: 1.79 µM
- TGI [3]: 3.28 µM
- GI50 [4]: 1.85 µM
- TGI [4]: 4.37 µM
- GI50 [5]: 1.79 µM
- TGI [5]: 3.54 µM
- GI50 [6]: 1.93 µM
- TGI [6]: 3.77 µM
- GI50 [7]: 1.86 µM
- TGI [7]: 3.43 µM
- GI50 [8]: 1.73 µM
- TGI [8]: 4.37 µM
- GI50 [9]: 1.78 µM
- TGI [9]: 3.27 µM
- GI50 [10]: 1.76 µM
- TGI [10]: 3.41 µM

SMILES: CC(=O)n1c(-c2ccc(Cl)cc2)nc2c(c1=O)C(c1ccc(Cl)cc1)c1sc3c(Cl)cccc3c1O2 (configuration not stated)
- GI50 [1]: 0.454 µM
- TGI [1]: 5.88 µM
- GI50 [2]: 0.292 µM
- TGI [2]: 1.01 µM
- GI50 [3]: 0.296 µM
- TGI [3]: 1.12 µM
- GI50 [4]: 0.383 µM
- TGI [4]: 4.12 µM
- GI50 [5]: 0.418 µM
- TGI [5]: 1.74 µM
- GI50 [6]: 0.368 µM
- TGI [6]: 1.33 µM
- GI50 [7]: 0.835 µM
- TGI [7]: 2.32 µM
- GI50 [8]: 0.396 µM
- TGI [8]: 3.23 µM
- GI50 [9]: 0.987 µM
- TGI [9]: 2.62 µM
- GI50 [10]: 0.364 µM
- TGI [10]: 1.57 µM

SMILES: Cc1noc(C)c1-c1ccc2[nH]c(=O)n3c2c1OC[C@@H]3c1ccccn1
- GI50 [1]: 0.0166 µM
- TGI [1]: 0.171 µM
- GI50 [2]: 2.33 µM
- TGI [2]: > 100 µM
- GI50 [3]: 2.05 µM
- TGI [3]: > 100 µM
- GI50 [4]: 2.07 µM
- TGI [4]: > 100 µM
- GI50 [5]: 0.653 µM
- TGI [5]: > 100 µM
- GI50 [6]: 0.415 µM
- TGI [6]: > 100 µM
- GI50 [7]: 2.92 µM
- TGI [7]: > 100 µM
- GI50 [8]: 0.254 µM
- TGI [8]: > 31.2 µM
- GI50 [9]: 0.312 µM
- TGI [9]: > 100 µM
- GI50 [10]: 0.433 µM
- TGI [10]: > 100 µM

SMILES: C=C(C)[C@@H]1CC[C@@]2(C(=O)O)CC[C@]3(C)C(CCC4[C@@]5(C)CCC(OS(=O)(=O)c6ccccc6)C(C)(C)C5CC[C@]43C)C12 (some centres not stated)
- GI50 [1]: 11.5 µM
- TGI [1]: 30.5 µM
- GI50 [2]: 3.52 µM
- TGI [2]: 18 µM
- GI50 [3]: 9.93 µM
- TGI [3]: 22.4 µM
- GI50 [4]: 5.28 µM
- TGI [4]: > 100 µM
- GI50 [5]: 2.93 µM
- TGI [5]: 19.9 µM
- GI50 [6]: 5.52 µM
- TGI [6]: 18 µM
- GI50 [7]: 2.44 µM
- TGI [7]: 17.7 µM
- GI50 [8]: 8 µM
- TGI [8]: 42.4 µM
- GI50 [9]: 3.84 µM
- TGI [9]: 25.4 µM
- GI50 [10]: 5.66 µM
- TGI [10]: 18.2 µM

SMILES: COc1ccc2c(-c3cc4ccccc4o3)cc(=O)oc2c1
- TGI [1]: 47.6 µM
- TGI [2]: > 100 µM
- TGI [3]: 49.6 µM
- TGI [4]: > 100 µM
- TGI [5]: > 100 µM
- TGI [6]: > 100 µM
- TGI [7]: > 100 µM
- TGI [8]: 43.6 µM
- TGI [9]: 50.8 µM
- TGI [10]: > 100 µM

SMILES: Cc1c(-c2nc(N)nc(C3CC3)c2C)nc(N)nc1C1CC1
- TGI [1]: > 100 µM
- TGI [2]: > 100 µM
- TGI [3]: > 100 µM
- TGI [4]: > 100 µM
- TGI [5]: > 100 µM
- TGI [6]: > 100 µM
- TGI [7]: > 100 µM
- TGI [8]: > 100 µM
- TGI [9]: > 100 µM
- TGI [10]: > 100 µM

SMILES: COc1ccc2c(c1)C=CC(C#N)N2C(=O)c1ccccc1 (configuration not stated)
- GI50 [1]: < 0.01 µM
- TGI [1]: > 100 µM
- GI50 [2]: < 0.0464 µM
- GI50 [3]: < 0.01 µM
- TGI [3]: 0.0238 µM
- GI50 [4]: < 0.01 µM
- TGI [4]: > 100 µM
- GI50 [5]: < 0.01 µM
- TGI [5]: > 100 µM
- GI50 [6]: < 0.01 µM
- TGI [6]: > 42.1 µM
- GI50 [7]: < 0.01 µM
- TGI [7]: > 100 µM
- GI50 [8]: < 0.01 µM
- TGI [8]: > 100 µM
- GI50 [9]: 33.7 µM
- TGI [9]: > 100 µM
- GI50 [10]: < 0.01 µM
- TGI [10]: < 0.048 µM

SMILES: CCOC(=O)[C@@H](C)C[C@H](Cc1ccccc1)NC(=O)c1csc([C@@H](C[C@H](C(C)C)N(C)C(=O)[C@@H](NC(=O)[C@H]2CCCCN2C)C(C)(C)C)OC(C)=O)n1
- GI50 [1]: < 0.00167 µM
- TGI [1]: 12.6 µM
- GI50 [2]: 0.00542 µM
- GI50 [3]: < 0.00167 µM
- TGI [3]: 0.00437 µM
- GI50 [4]: < 0.00167 µM
- TGI [4]: > 16.7 µM
- GI50 [5]: < 0.00167 µM
- TGI [5]: > 16.7 µM
- GI50 [6]: < 0.00167 µM
- TGI [6]: > 7.52 µM
- GI50 [7]: < 0.00167 µM
- TGI [7]: > 16.7 µM
- GI50 [8]: < 0.00167 µM
- TGI [8]: 0.472 µM
- GI50 [9]: 0.117 µM
- TGI [9]: > 16.7 µM
- GI50 [10]: < 0.00167 µM
- TGI [10]: 0.00432 µM

SMILES: COc1ccc(C2C(C#N)=C(N)OC3=C2CCCc2ccc(F)cc23)cc1OC (configuration not stated)
- GI50 [1]: 34.7 µM
- TGI [1]: > 84.6 µM
- GI50 [2]: 16.6 µM
- TGI [2]: 43.9 µM
- GI50 [3]: 16.6 µM
- TGI [3]: 32.2 µM
- TGI [4]: 0.0686 µM
- GI50 [5]: 17.8 µM
- TGI [5]: 38 µM
- GI50 [6]: 29.6 µM
- TGI [6]: > 72.4 µM
- GI50 [7]: 25.8 µM
- TGI [7]: > 69.6 µM
- GI50 [8]: 22 µM
- TGI [8]: 51.5 µM
- GI50 [9]: 28.8 µM
- TGI [9]: 56.3 µM
- GI50 [10]: 38.5 µM
- TGI [10]: > 95.8 µM

SMILES: C=CCOc1c(Br)cc(Br)cc1Br
- GI50 [1]: 20.2 µM
- TGI [1]: > 100 µM
- GI50 [2]: 17.3 µM
- TGI [2]: > 100 µM
- GI50 [3]: 20.9 µM
- TGI [3]: > 100 µM
- GI50 [4]: 10.4 µM
- TGI [4]: > 100 µM
- GI50 [5]: 16.7 µM
- TGI [5]: > 100 µM
- GI50 [6]: 33 µM
- TGI [6]: > 100 µM
- GI50 [7]: 45.8 µM
- TGI [7]: > 100 µM
- GI50 [8]: 17.8 µM
- TGI [8]: > 100 µM
- GI50 [9]: > 100 µM
- TGI [9]: > 100 µM
- GI50 [10]: 22.2 µM
- TGI [10]: 56.9 µM

SMILES: O=C(N/N=C/c1ccc(Cl)cc1Cl)c1ccccc1Nc1cccc(C(F)(F)F)c1
- GI50 [1]: 2.55 µM
- TGI [1]: 9.71 µM
- GI50 [2]: 5.97 µM
- TGI [2]: 36.7 µM
- GI50 [3]: 3.36 µM
- TGI [3]: 12.8 µM
- GI50 [4]: 3.51 µM
- TGI [4]: 19.3 µM
- GI50 [5]: 30.5 µM
- TGI [5]: > 100 µM
- GI50 [6]: 14.4 µM
- TGI [6]: > 100 µM
- GI50 [7]: 2.31 µM
- TGI [7]: 6.18 µM
- GI50 [8]: 4.1 µM
- TGI [8]: 44.5 µM
- GI50 [9]: 2.84 µM
- TGI [9]: 9.22 µM
- GI50 [10]: 2.73 µM
- TGI [10]: 9.37 µM

SMILES: COc1ccc(-c2cc(-c3cc(Cl)ccc3Cl)nc3nc(=S)[nH]c(N)c23)cc1
- GI50 [1]: 82.7 µM
- TGI [1]: > 100 µM
- GI50 [2]: 20.1 µM
- TGI [2]: 45.2 µM
- GI50 [3]: 27 µM
- TGI [3]: 82.9 µM
- GI50 [4]: 26.6 µM
- TGI [4]: > 100 µM
- GI50 [5]: 17.5 µM
- TGI [5]: > 100 µM
- GI50 [6]: 37.8 µM
- TGI [6]: > 100 µM
- GI50 [7]: 15.2 µM
- TGI [7]: 41.8 µM
- GI50 [8]: 14.6 µM
- TGI [8]: 74.8 µM
- GI50 [9]: 7.35 µM
- TGI [9]: 38.5 µM
- GI50 [10]: 85.7 µM
- TGI [10]: > 100 µM

SMILES: N#Cc1c(-c2ccccc2)nc2c(c(-c3ccccc3)nn2-c2ccccc2)c1-c1ccc(O)cc1
- GI50 [1]: 2.03 µM
- TGI [1]: 7.28 µM
- GI50 [2]: 2.27 µM
- TGI [2]: 5.62 µM
- GI50 [3]: 1.25 µM
- TGI [3]: 2.76 µM
- GI50 [4]: 3.13 µM
- TGI [4]: 13.4 µM
- GI50 [5]: 1.62 µM
- TGI [5]: 3.79 µM
- GI50 [6]: 2.51 µM
- TGI [6]: 6.44 µM
- GI50 [7]: 2.57 µM
- TGI [7]: 6.87 µM
- GI50 [8]: 1.41 µM
- TGI [8]: 4.46 µM
- GI50 [9]: 2.89 µM
- TGI [9]: 8.19 µM
- GI50 [10]: 2.61 µM
- TGI [10]: 6.31 µM
